From patent publication US20090291088A1, “THERAPEUTIC COMBINATIONS OF ANTI-IGF-1R ANTIBODIES AND OTHER COMPOUNDS” (Biogen Idec MA Inc., priority 2008, published 2009) come the findings set out here.

One assay concerns IGF-1R-Fc. The experiment in a line: Surface plasmon resonance analysis of the IGF-1R-Fc mutant library (46 mutants). To be noted: for C06 binding: M13-C06 Fab; for C06 binding / C03 binding / G11 binding / P1E2 binding / αIR3 binding: KD relative to WT hIGF-1R-Fc; for C03 binding: M14-C03 Fab; for G11 binding: M14-G11 Fab; for P1E2 binding: P1E2 antibody; for αIR3 binding: αIR3 antibody. The assay is classed as binding, human. How it is done:
Surface plasmon resonance (SPR) experiments were performed on a Biacore 3000 instrument set to 25° C. Both mIGF-1R-Fc and hIGF-1R-Fc bind with high apparent affinity to research grade CM5 sensorchip surfaces containing immobilized M13-C06, M14-C03, and M14-G11. The antibody sensorchip surfaces were prepared by injecting each antibody (diluted 100 μg/mL in 10 mM Acetate, pH 4.0) over EDC/NHS-activated sensorchip surfaces according to the standard protocol of the manufacturer. The ability of mIGF-1R-Fc to bind the antibody surfaces was the result of high apparent avidity of the protein. Both hIGF-1R-Fc and mIGF-1R-Fc proteins oligomerize due to the incorporation of two separate homodimeric regions (IGF-1R and IgG1-Fc). To distinguish between actual high affinity antibody binding to hIGF-1R-Fc and low affinity antibody binding to mIGF-1R-Fc, the receptor-Fc fusions were captured on the M13-C06 and M14-G11 sensorchip surfaces followed by an additional injection of antibody (αIR3 and P1E2) or antibody Fab (M13-C06, M14-C03, and M14-G11). […] After, completion of the receptor-Fc loading step, flow rates were elevated to 5 μl/min. Solutions containing M13-C06 Fab or αIR3 antibody at 10 nM, 3 nM, or 1 nM or M14-C03 Fab, M14-G11 Fab, or P1E2 antibody at 30 nM, 10 nM, or 3 nM were injected (50 μL) subsequent to the loading of each receptor-Fc construct. Dissociation was measured for 7 minutes after the antibody injections were complete. Finally, the flow rate was elevated to 30 μL/min and the chip surfaces were regenerated by 2×10 μL injections of 0.1 M glycine, pH 2.
M13-C06, M14-C03, M14-G11, P1E2 and αIR3 were assayed for their ability to interact with each of the mutant IGF-1R-Fc fusion constructs using surface plasmon resonance (Biacore). To remove the uncertain concentrations of the IGF-1R-Fc fusion constructs as a variable in the assay, each mutant construct was captured on a research grade CM5 chip containing ˜10,000 RU immobilized […], M14-C03, and M14-G11 antibody. To enhance our ability to visualize attenuations in antibody binding to the captured mutant IGF-1R constructs, we utilized enzymatically derived M13-C06, M14-C03, and M14-G11 antigen binding fragments (Fabs).

Another assay concerns IGF-1R. Briefly: Biacore analysis of the IGF-1R-Fc mutant library: M13-C06 Fab binding to receptor-Fc captured on M13-C06 chip. On the set-up: species or system human. The following applies: M13-C06 Fab binding to mutant hIGF-1R-Fc captured on M13-C06 chip. From the text:
Both mIGF-1R-Fc and hIGF-1R-Fc bind with high apparent affinity to the M13-C06, M14-C03, and M14-G11 sensorchip surfaces described above due to their highly multivalent nature induced by the incorporation of two separate homodimeric regions (IGF-1R and IgG1-Fc). To distinguish between the actual high affinity binding hIGF-1R-Fc to M13-C06 and the low affinity binding of mIGF-1R-Fc to M13-C06, the receptor-Fc fusions were captured on the M13-C06 sensorchip surface followed by an additional soluble M13-C06 Fab binding event. […] After, completion of the receptor-Fc loading step, flow rates were elevated to 5 μl/min. 10 nM, […], and 1 nM M13-C06 Fab concentrations were injected (50 μL) subsequent to the loading of each receptor-Fc construct. At the end of each sensorgram, the flow rate was elevated to 30 μl/min and the chip surface was regenerated by 2×10 μL injections of 0.1 M glycine, pH 2.
On the technique in general: Surface plasmon resonance follows binding to a sensor surface in real time, without labels.

For SD110: hIGF-1R-Fc mutant E533H, in the assay on IGF-1R-Fc, the C06 binding entry was “W (Weak (W): measured KD between 2.5-10-fold higher than WT)” and the C03 binding result is recorded as “S (Strong (S): binding to antibody was ablated by mutation)”.

As to SD202: hIGF-1R-Fc mutant D250S, in the assay with IGF-1R-Fc, the G11 binding entry was “S (Strong (S): binding to antibody was ablated by mutation)”, the P1E2 binding entry is recorded as “NE (No effect (NE): measured KD within 2.5-fold of WT hIGF-1R-Fc)” and the αIR3 binding result is reported as “NE (No effect (NE): measured KD within 2.5-fold of WT hIGF-1R-Fc)”.

For the substance SD103: hIGF-1R-Fc mutant D461A V462T, in the assay on IGF-1R-Fc, the “effect of mutation on M13-C06 and M14-C03 Fab binding” value is “no reactivity towards the M13-C06 and M14-C03 Fabs”; the C06 binding result is “S-most”; the C03 binding entry is on record as “S-most”.

Take SD111: hIGF-1R-Fc mutant I564T R565A: in the assay on IGF-1R-Fc, the C06 binding entry is recorded as “W (Weak (W): measured KD between 2.5-10-fold higher than WT)” and the C03 binding entry is listed as “W (Weak (W): measured KD between 2.5-10-fold higher than WT)”.

Take SD112: hIGF-1R-Fc mutant K568A: in the assay on IGF-1R-Fc, the C06 binding entry was “NE (No effect (NE): measured KD within 2.5-fold of WT hIGF-1R-Fc)” and the C03 binding entry is “W (Weak (W): measured KD between 2.5-10-fold higher than WT)”.

Consider SD006: hIGF-1R-Fc mutant A227K, for which, in the assay on IGF-1R-Fc, the C06 binding entry is “NE (No effect (NE): measured KD within 2.5-fold of WT hIGF-1R-Fc)”, the C03 binding entry is “NE (No effect (NE): measured KD within 2.5-fold of WT hIGF-1R-Fc)”, the G11 binding entry is “NE (No effect (NE): measured KD within 2.5-fold of WT hIGF-1R-Fc)” and the P1E2 binding result was “NE (No effect (NE): measured KD within 2.5-fold of WT hIGF-1R-Fc)”. Besides, the αIR3 binding result with IGF-1R-Fc was “NE (No effect (NE): measured KD within 2.5-fold of WT hIGF-1R-Fc)”. Further, the “Biacore Relative RUmax” value in the assay on IGF-1R is reported as 1.7.

Regarding SD104: hIGF-1R-Fc mutant H464A, in the assay with IGF-1R-Fc, the C06 binding entry is listed as “S (Strong (S): binding to antibody was ablated by mutation)” and the C03 binding result is on record as “S (Strong (S): binding to antibody was ablated by mutation)”.

With SD205: hIGF-1R-Fc mutant E259K S260N, in the assay on IGF-1R-Fc, the G11 binding result is “W (Weak (W): measured KD between 2.5-10-fold higher than WT)”, the P1E2 binding result was “NE (No effect (NE): measured KD within 2.5-fold of WT hIGF-1R-Fc)” and the αIR3 binding entry is given as “NE (No effect (NE): measured KD within 2.5-fold of WT hIGF-1R-Fc)”.

With SD106: hIGF-1R-Fc mutant T468R, in the assay on IGF-1R-Fc, the C06 binding result is “NE (No effect (NE): measured KD within 2.5-fold of WT hIGF-1R-Fc)” and the C03 binding result is reported as “NE (No effect (NE): measured KD within 2.5-fold of WT hIGF-1R-Fc)”.

Regarding SD102: hIGF-1R-Fc mutant E459A S460A, in the assay with IGF-1R-Fc, the C06 binding entry was “S (Strong (S): binding to antibody was ablated by mutation)” and the C03 binding result was “S (Strong (S): binding to antibody was ablated by mutation)”.

For SD208: hIGF-1R-Fc mutant V301Y, in the assay with IGF-1R-Fc, the G11 binding entry was “NE (No effect (NE): measured KD within 2.5-fold of WT hIGF-1R-Fc)”, the P1E2 binding result is on record as “NE (No effect (NE): measured KD within 2.5-fold of WT hIGF-1R-Fc)” and the αIR3 binding result is “W (Weak (W): measured KD between 2.5-10-fold higher than WT)”.

For SDWT: wild-type hIGF-1R-Fc, the “Biacore Relative RUmax” value with IGF-1R was 1.0.

For SD210: hIGF-1R-Fc mutant T308E, in the assay on IGF-1R-Fc, the G11 binding entry was “NE (No effect (NE): measured KD within 2.5-fold of WT hIGF-1R-Fc)”, the P1E2 binding result is listed as “NE (No effect (NE): measured KD within 2.5-fold of WT hIGF-1R-Fc)” and the αIR3 binding entry is “W (Weak (W): measured KD between 2.5-10-fold higher than WT)”.

With SD207: hIGF-1R-Fc mutant G265Y, in the assay with IGF-1R-Fc, the G11 binding entry is on record as “W (Weak (W): measured KD between 2.5-10-fold higher than WT)”, the P1E2 binding result is “S (Strong (S): binding to antibody was ablated by mutation)” and the αIR3 binding entry is “S (Strong (S): binding to antibody was ablated by mutation)”.

In the case of SD113: hIGF-1R-Fc mutant E570A I571T, in the assay with IGF-1R-Fc, the C06 binding entry is recorded as “S (Strong (S): binding to antibody was ablated by mutation)” and the C03 binding result was “S (Strong (S): binding to antibody was ablated by mutation)”.

For the substance SD105: hIGF-1R-Fc mutant T466L S467Y, in the assay on IGF-1R-Fc, the C06 binding entry is reported as “W (Weak (W): measured KD between 2.5-10-fold higher than WT)” and the C03 binding entry is reported as “W (Weak (W): measured KD between 2.5-10-fold higher than WT)”.

For the substance SD206: hIGF-1R-Fc mutant S263R, in the assay on IGF-1R-Fc, the G11 binding entry is given as “W (Weak (W): measured KD between 2.5-10-fold higher than WT)”, the P1E2 binding entry is recorded as “NE (No effect (NE): measured KD within 2.5-fold of WT hIGF-1R-Fc)” and the αIR3 binding entry is reported as “W (Weak (W): measured KD between 2.5-10-fold higher than WT)”.

For SD212: hIGF-1R-Fc mutant L379R, in the assay with IGF-1R-Fc, the G11 binding entry is listed as “NE (No effect (NE): measured KD within 2.5-fold of WT hIGF-1R-Fc)”, the P1E2 binding entry was “NE (No effect (NE): measured KD within 2.5-fold of WT hIGF-1R-Fc)” and the αIR3 binding result is “W (Weak (W): measured KD between 2.5-10-fold higher than WT)”.

As to SD107: hIGF-1R-Fc mutant T478R, in the assay on IGF-1R-Fc, the C06 binding entry was “NE (No effect (NE): measured KD within 2.5-fold of WT hIGF-1R-Fc)” and the C03 binding result was “W (Weak (W): measured KD between 2.5-10-fold higher than WT)”.

For SD101: hIGF-1R-Fc mutant S427L, in the assay with IGF-1R-Fc, the C06 binding entry is reported as “NE (No effect (NE): measured KD within 2.5-fold of WT hIGF-1R-Fc)” and the C03 binding entry is listed as “NE (No effect (NE): measured KD within 2.5-fold of WT hIGF-1R-Fc)”.

Regarding SD108: hIGF-1R-Fc mutant H480E, in the assay on IGF-1R-Fc, the C06 binding entry is “S (Strong (S): binding to antibody was ablated by mutation)” and the C03 binding result is reported as “S (Strong (S): binding to antibody was ablated by mutation)”.

As to SD109: hIGF-1R-Fc mutant Y482A R483W, in the assay with IGF-1R-Fc, the C06 binding entry is reported as “S (Strong (S): binding to antibody was ablated by mutation)” and the C03 binding result is listed as “S (Strong (S): binding to antibody was ablated by mutation)”.

On to SD204: hIGF-1R-Fc mutant S257K, for which, in the assay with IGF-1R-Fc, the G11 binding entry is listed as “W (Weak (W): measured KD between 2.5-10-fold higher than WT)”, the P1E2 binding entry is “M (Medium (M): measured KD between 10-100-fold higher than WT)” and the αIR3 binding result is listed as “NE (No effect (NE): measured KD within 2.5-fold of WT hIGF-1R-Fc)”.

Turning to SD201: hIGF-1R-Fc mutant D248A, in the assay on IGF-1R-Fc, the G11 binding result was “S (Strong (S): binding to antibody was ablated by mutation)”, the P1E2 binding result was “W (Weak (W): measured KD between 2.5-10-fold higher than WT)” and the αIR3 binding entry is on record as “S (Strong (S): binding to antibody was ablated by mutation)”.

As for SD209: hIGF-1R-Fc mutant K306E, in the assay on IGF-1R-Fc, the G11 binding entry is “NE (No effect (NE): measured KD within 2.5-fold of WT hIGF-1R-Fc)”, the P1E2 binding entry is recorded as “NE (No effect (NE): measured KD within 2.5-fold of WT hIGF-1R-Fc)” and the αIR3 binding entry is recorded as “NE (No effect (NE): measured KD within 2.5-fold of WT hIGF-1R-Fc)”.

As to SD203: hIGF-1R-Fc mutant N254A, in the assay on IGF-1R-Fc, the G11 binding entry is recorded as “M (Medium (M): measured KD between 10-100-fold higher than WT)”, the P1E2 binding entry is “S (Strong (S): binding to antibody was ablated by mutation)” and the αIR3 binding entry was “M (Medium (M): measured KD between 10-100-fold higher than WT)”.

Consider SD211: hIGF-1R-Fc mutant K327N, for which, in the assay with IGF-1R-Fc, the G11 binding result was “NE (No effect (NE): measured KD within 2.5-fold of WT hIGF-1R-Fc)”, the P1E2 binding result is recorded as “NE (No effect (NE): measured KD within 2.5-fold of WT hIGF-1R-Fc)” and the αIR3 binding result is “W (Weak (W): measured KD between 2.5-10-fold higher than WT)”.
